Data reported in US8501755B2, “Tetrahydropyridothienopyrimidine compounds and methods of use thereof” (Bayer Intellectual Property GmbH, priority 2006, dated 2013).

Key:
Assay type in all cases: cell-based
[1] = tested on: H1975 cells; assay: In vitro tumor cell proliferation assay (Cell Titer-Glo) in H1975 cells; conditions: NCI-H1975; H1975 human NSCLC expressing mutant HER1 (L858R,T790M); 72 hours exposure; read-out: IC50, activities in H 1975 cell lines
Method in brief: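 After 72 h compound exposure at 37° C (top 10 uM down to 64 pM, 0.1% DMSO), viability of EGFR L858R/T790M-mutant H1975 cells was read as ATP luminescence.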

[2] = tested on: A431 cells; assay: In vitro tumor cell proliferation assay (Cell Titer-Glo) in A431 cells; conditions: Homo sapiens, A-431, 72 h, A431 human epidermoid carcinoma overexpressing HER1; 72 hours exposure; read-out: IC50, activities in A431 cell lines
Method in brief: (§1)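 Viability after 72 h drug exposure at 37 °C was read as CellTiter-Glo ATP luminescence, giving IC50. Cells (2.5×10^3/well, RPMI + 10% FBS) were compound-treated one day post-seeding, 0.1% DMSO final: A431 overexpresses HER1, N87 overexpresses HER2 and HER1.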

[3] = tested on: N87; assay: In vitro tumor cell proliferation assay (Cell Titer-Glo) in N87 cells; conditions: N87 human gastric carcinoma overexpressing HER2 and HER1; 72 hours exposure; read-out: IC50, activities in N87 cell lines
Method in brief: as §1

Structure (SMILES)	IC50 [1] [nM]	IC50 [2] [nM]	IC50 [3] [nM]
Cc1cc(Nc2ncnc3sc4c(c23)CCN(C(=O)/C=C/CN(C)C)C4)ccc1Cl [Example 183, N-(4-chloro-3-methylphenyl)-7-[(2E)-4-(dimethylamino)but-2-enoyl]-5,6,7,8-tetrahydropyrido [4′,3′:4,5]thieno[2,3-d]pyrimidin-4-amine]	< 200	200 to 1000	< 200
CN(C)C/C=C/C(=O)N1CCc2c(sc3ncnc(Nc4ccc(Br)cc4)c23)C1 [Example 184, N-(4-bromophenyl)-7-[(2E)-4-(dimethylamino)but-2-enoyl]-5,6,7,8-tetrahydropyrido [4′,3′:4,5]thieno[2,3-d]pyrimidin-4-amine.]	1000 to 10000	200 to 1000	< 200
CN(C)C/C=C/C(=O)N1CCc2c(sc3ncnc(Nc4ccc5c(c4)CCC5)c23)C1 [Example 185, N-(2,3-dihydro-1H-inden-5-yl)-7-[(2E)-4-(dimethylamino)but-2-enoyl]-5,6,7,8-tetrahydropyrido [4′,3′:4,5]thieno[2,3-d]pyrimidin-4-amine]	1000 to 10000	200 to 1000	< 200
CCN(C)C/C=C/C(=O)N1CCc2c(sc3ncnc(Nc4cccc(Br)c4)c23)C1 [Example 186, N-(3-bromophenyl)-7-{(2E)-4-[ethyl(methyl)amino]but-2-enoyl}-5,6,7,8-tetrahydropyrido [4′,3′:4,5]thieno[2,3-d]pyrimidin-4-amine]	200 to 1000	200 to 1000	< 200
CC(C)N(C)C/C=C/C(=O)N1CCc2c(sc3ncnc(Nc4ccc(Cl)c(Cl)c4)c23)C1 [Example 187, N-(3,4-dichlorophenyl)-7-{(2E)-4-[isopropyl(methyl)amino]but-2-enoyl}-5,6,7,8-tetrahydropyrido[4′,3′:4,5]thieno[2,3-d]pyrimidin-4-amine]	< 200	200 to 1000	< 200
CCN(CC)C/C=C/C(=O)N1CCc2c(sc3ncnc(Nc4ccc(Cl)c(Cl)c4)c23)C1 [Example 188, N-(3,4-dichlorophenyi)-7-[(2E)-4-(diethylamino)but-2-enoyl]-5,6,7,8-tetrahydropyrido [4′,3′:4,5]thieno[2,3-d]pyrimidin-4-amine]	200 to 1000	200 to 1000	< 200
CC(C)N(C)C/C=C/C(=O)N1CCc2c(sc3ncnc(Nc4cccc(Br)c4)c23)C1 [Example 189, N-(3-bromophenyl)-7-{(2E)-4-[isopropyl(methyl)amino]but-2-enoyl}-5,6,7,8-tetrahydropyrido [4′,3′:4,5]thieno[2,3-d]pyrimidin-4-amine]	200 to 1000	200 to 1000	< 200
CCN(C)C/C=C/C(=O)N1CCc2c(sc3ncnc(Nc4ccc(Cl)c(Cl)c4)c23)C1 [Example 190, N-(3,4-dichlorophenyl)-7-{(2E)-4-[ethyl(methyl)amino]but-2-enoyl}-5,6,7,8-tetrahydropyrido [4′,3:4,5]thieno[2,3-d]pyrimidin-4-amine]	200 to 1000	200 to 1000	< 200
O=C(/C=C/CN1CCOCC1)N1CCc2c(sc3ncnc(Nc4ccc(Cl)c(Cl)c4)c23)C1 [Example 191, N-(3,4-dichlorophenyl)-7-[{2E)-4-morpholin-4-ylbut-2-enoyl]-5,6,7,8-tetrahydropyrido [4′,3′:4,5]thieno[2,3-d]pyrimidin-4-amine]	1000 to 10000	200 to 1000	< 200
O=C(/C=C/CN1CCCC1)N1CCc2c(sc3ncnc(Nc4ccc(Cl)c(Cl)c4)c23)C1 [Example 192, N-(3,4-dichlorophenyl)-7-[(2E)-4-pyrrolidin-1-ylbut-2-enoyl]-5,6,7,8-tetrahydropyrido [4′,3′:4,5]thieno[2,3-d]pyrimidin-4-amine]	200 to 1000	200 to 1000	< 200
O=C(/C=C/CN1CCOCC1)N1CCc2c(sc3ncnc(Nc4cccc(Br)c4)c23)C1 [Example 193, N-(3-bromophenyl)-7-[(2E)-4-morpholin-4-ylbut-2-enoyl]-5,6,7,8-tetrahydropyrido [4′,3′:4,5]thieno[2,3-d]pyrimidin-4-amine]	1000 to 10000	1000 to 10000	< 200
O=C(/C=C/CN1CCCC1)N1CCc2c(sc3ncnc(Nc4cccc(Br)c4)c23)C1 [Example 194, N-(3-bromophenyl)-7-[(2E)-4-pyrrolidin-1-ylbut-2-enoyl]-5,6,7,8-tetrahydropyrido [4′,3′:4,5]thieno[2,3-d]pyrimidin-4-amine]	< 200	< 200	< 200
O=C(/C=C/CN1CCCCC1)N1CCc2c(sc3ncnc(Nc4ccc(Cl)c(Cl)c4)c23)C1 [Example 195, N-(3,4-dichlorophenyl)-7-[(2E)-4-piperidin-1-ylbut-2-enoyl]-5,6,7,8-tetrahydropyrido [4′,3′:4,5]thieno[2,3-d]pyrimidin-4-amine]	< 200	< 200	< 200
O=C(/C=C/CN1CCCCC1)N1CCc2c(sc3ncnc(Nc4cccc(Br)c4)c23)C1 [Example 196, N-(3-bromophenyl)-7-[(2E)-4-piperidin-1-ylbut-2-enoyl]-5,6,7,8-tetrahydropyrido [4′,3′:4,5]thieno[2,3-d]pyrimidin-4-amine]	200 to 1000	< 200	< 200
CCN(CC)C/C=C/C(=O)N1CCc2c(sc3ncnc(Nc4cccc(Br)c4)c23)C1 [Example 197, N-(3-bromophenyl)-7-[(2E)-4-(diethylamino)but-2-enoyl]-5,6,7,8-tetrahydropyrido [4′,3′:4,5]thieno[2,3-d]pyrimidin-4-amine]	200 to 1000	< 200	< 200
CN(C/C=C/C(=O)N1CCc2c(sc3ncnc(Nc4cccc(Br)c4)c23)C1)C(C)(C)C [Example 198, N-(3-bromophenyl)-7-{(2E)-4-[tert-butyl(methyl)amino]but-2-enoyl}-5,6,7,8-tetrahydropyrido [4′,3′:4,5]thieno[2,3-d]pyrimidin-4-amine]	200 to 1000	< 200	< 200
CN(C/C=C/C(=O)N1CCc2c(sc3ncnc(Nc4ccc(Cl)c(Cl)c4)c23)C1)C(C)(C)C [Example 199, 7-{(2E)-4-[tert-butyl(methyl)amino]but-2-enoyl}-N-(3,4-dichlorophenyl)-5,6,7,8-tetrahydropyrido [4′,3′:4,5]thieno[2,3-d]pyrimidin-4-amine]	< 200	< 200	< 200
CCN(C/C=C/C(=O)N1CCc2c(sc3ncnc(Nc4ccc(Cl)c(Cl)c4)c23)C1)C1CCCCC1 [Example 200, 7-{(2E)-4-[cyclohexyl(ethyl)amino]but-2-enoyl}-N-(3,4-dichlorophenyl)-5,6,7,8-tetrahydropyrido [4′,3′:4,5]thieno[2,3-d]pyrimidin-4-amine]	200 to 1000	200 to 1000	< 200
CCN(C/C=C/C(=O)N1CCc2c(sc3ncnc(Nc4cccc(Br)c4)c23)C1)C1CCCCC1 [Example 201, N-(3-bromophenyl)-7-{(2E)-4-[cyclohexyl(ethyl)amino]but-2-enoyl}-5,6,7,8-tetrahydropyrido [4′,3′:4,5]thieno[2,3-d]pyrimidin-4-amine]	200 to 1000	200 to 1000	< 200
CN(C/C=C/C(=O)N1CCc2c(sc3ncnc(Nc4cccc(Br)c4)c23)C1)C1CCCCC1 [Example 202, N-(3-bromophenyl)-7-{(2E)-4-[cyclohexyl(methyl)amino]but-2-enoyl}-5,6,7,8-tetrahydropyrido [4′,3′:4,5]thieno[2,3-d]pyrimidin-4-amine]	200 to 1000	200 to 1000	< 200
CN(C/C=C/C(=O)N1CCc2c(sc3ncnc(Nc4ccc(Cl)c(Cl)c4)c23)C1)C1CCCCC1 [Example 203, 7-{(2E)-4-[cyclohexyl(methyl)amino]but-2-enoyl}-N-(3,4-dichlorophenyl)-5,6,7,8-tetrahydropyrido [4′,3′:4,5]thieno[2,3-d]pyrimidin-4-amine]	1000 to 10000	200 to 1000	< 200
CCN(C/C=C/C(=O)N1CCc2c(sc3ncnc(Nc4cccc(Br)c4)c23)C1)C(C)C [Example 204, N-(3-bromophenyl)-7-{(2E)-4-[ethyl(isopropyl)amino]but-2-enoyl}-5,6,7,8-tetrahydropyrido [4′,3′:4,5]thieno[2,3-d]pyrimidin-4-amine]	200 to 1000	200 to 1000	< 200
CCN(C/C=C/C(=O)N1CCc2c(sc3ncnc(Nc4ccc(Cl)c(Cl)c4)c23)C1)C(C)C [Example 205, N-(3,4-dichlorophenyl)-7-{(2E)-4-[ethyl(isopropyl)amino]but-2-enoyl}-5,6,7,8-tetrahydropyrido [4′,3′:4,5]thieno[2,3-d]pyrimidin-4-amine]	< 200	< 200	< 200
CC1CCCN1C/C=C/C(=O)N1CCc2c(sc3ncnc(Nc4cccc(Br)c4)c23)C1 (stereo not drawn) [Example 207, N-(3-bromophenyl)-7-[(2E)-4-(2-methylpyrrolidin-1-yl)but-2-enoyl]-5,6,7,8-tetrahydropyrido [4′,3′:4,5]thieno[2,3-d]pyrimidin-4-amine]	200 to 1000	200 to 1000	< 200
CC(C)N(C/C=C/C(=O)N1CCc2c(sc3ncnc(Nc4cccc(Br)c4)c23)C1)C(C)C [Example 208, N-(3-bromophenyl)-7-[(2E)-4-(diisopropylamino)but-2-enoyl]-5,6,7,8-tetrahydropyrido [4′,3:4,5]thieno[2,3-d]pyrimidin-4-amine]	200 to 1000	200 to 1000	< 200
